Values of other authors in patent US8454993B2, “Controlled release pharmaceutical compositions of pregabalin” (Lupin Limited, priority 2007, dated 2013).

Conditions: in water and both basic and acidic aqueous solutions

## CC(C)C[C@H](CN)CC(=O)O [Pregabalin, (S)-(+)-3-(aminomethyl)-5-methylhexanoic acid]
  solubility: freely soluble
